In the supplement of paper PMC11061612:

Legend:
[1] = compound: C1CC(C1)(C(=O)[O-])C(=O)[O-].N.N.[Pt+2] [Carboplatin]; details: max 10 µM
Summary of the method: (§1)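 In 1536-well plates, cancer cell lines in 7.5 μl DMEM/F12 or RPMI with 10% FBS spent 24 hours at 37°C and 5% CO2 and were then dosed for 72 hours with final DMSO typically 0.2%. Viability was read by CellTiter-Glo 2.0 luminescence and scaled between blank-well and DMSO-well means. The single-agent IC50 was fitted from dose responses using a logistic curve in a non-linear mixed effects model, and that logistic curve had two parameters.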

[2] = compound: C1CN(CCC1(C(=O)N[C@@H](CCO)C2=CC=C(C=C2)Cl)N)C3=NC=NC4=C3C=CN4 [AZD5363]; details: max 10 µM
Summary of the method: as §1

[3] = compound: C=CCn1c(=O)c2cnc(Nc3ccc(N4CCN(C)CC4)cc3)nc2n1-c1cccc(C(C)(C)O)n1 [AZD1775]; details: max 3 µM
Summary of the method: as §1

[4] = compound: CC(=O)Nc1cccc(-n2c(=O)n(C3CC3)c(=O)c3c(Nc4ccc(I)cc4F)n(C)c(=O)c(C)c32)c1 [Trametinib]; details: max 1 µM
Summary of the method: as §1

[5] = compound: CC(=O)O[C@H]1C(=O)[C@@]2(C)[C@H]([C@H](OC(=O)c3ccccc3)[C@]3(O)C[C@H](OC(=O)[C@H](O)[C@@H](NC(=O)c4ccccc4)c4ccccc4)C(C)=C1C3(C)C)[C@]1(OC(C)=O)CO[C@@H]1C[C@@H]2O [Paclitaxel]; details: max 3 µM
Summary of the method: as §1

[6] = compound: CC(=O)c1c(C)c2cnc(Nc3ccc(N4CCNCC4)cn3)nc2n(C2CCCC2)c1=O [Palbociclib]; details: max 10 µM
Summary of the method: as §1

[7] = compound: CC(C)n1c(=O)n(C)c2cnc3cc(F)c(-c4ccc(OCCCN5CCCCC5)nc4)cc3c21 [AZD1390]; details: max 0.3 µM
Summary of the method: as §1

[8] = compound: CC1(C)CCC(CN2CCN(c3ccc(C(=O)NS(=O)(=O)c4ccc(NCC5CCOCC5)c([N+](=O)[O-])c4)c(Oc4cnc5[nH]ccc5c4)c3)CC2)=C(c2ccc(Cl)cc2)C1 [Venetoclax]; details: max 1 µM
Summary of the method: as §1

[9] = compound: CC1=C(C(=CC=C1)Cl)NC(=O)C2=CN=C(S2)NC3=CC(=NC(=N3)C)N4CCN(CC4)CCO [Dasatinib]; details: max 2 µM
Summary of the method: as §1

[10] = compound: CC1=CN2[C@@H](C1)C=NC3=CC(=C(C=C3C2=O)OC)OCCCCCOC4=C(C=C5C(=C4)N=C[C@@H]6CC(=CN6C5=O)C)OC [SG3199]; details: max 0.001 µM
Summary of the method: as §1

[11] = compound: CCN(CCO)CCCOc1ccc2c(Nc3cc(CC(=O)Nc4cccc(F)c4)[nH]n3)ncnc2c1 [AZD2811]; details: max 1 µM
Summary of the method: as §1

[12] = compound: CCc1c2c(nc3ccc(O)cc13)-c1cc3c(c(=O)n1C2)COC(=O)[C@]3(O)CC [SN-38]; details: max 0.3 µM
Summary of the method: as §1

[13] = compound: CN(C)CCCOc1ccc(-c2ccc3ncc4c(c3c2)n(C2CCOCC2)c(=O)n4C)cn1 [AZD0156]; details: max 3 µM
Summary of the method: as §1

[14] = compound: CN(CC[C@H](CSC1=CC=CC=C1)NC2=C(C=C(C=C2)S(=O)(=O)NC(=O)C3=CC=C(C=C3)N4CCC(CC4)[C@H](C5=CC=CC=C5C6=CC=C(C=C6)Cl)O)S(=O)(=O)C(F)(F)F)CCO [AZD4320]; details: max 1 µM
Summary of the method: as §1

[15] = compound: COc1cc(Nc2ncc3c(n2)-c2ccc(Cl)cc2C(c2c(F)cccc2OC)=NC3)ccc1C(=O)O [Alisertib]; details: max 10 µM
Summary of the method: as §1

[16] = compound: COc1cc([C@@H]2c3cc4c(cc3[C@@H](O[C@@H]3O[C@@H]5CO[C@@H](C)O[C@H]5[C@H](O)[C@H]3O)[C@H]3COC(=O)[C@H]23)OCO4)cc(OC)c1O [Etoposide]; details: max 10 µM
Summary of the method: as §1

[17] = compound: COc1cc2ncnc(Nc3ccc(F)c(Cl)c3)c2cc1OCCCN1CCOCC1 [Gefitinib]; details: max 10 µM
Summary of the method: as §1

[18] = compound: COc1cccc(OCCCN)c1-c1cc(Nc2cnc(C#N)cn2)n[nH]1 [Prexasertib]; details: max 1 µM
Summary of the method: as §1

[19] = compound: COc1cccc2c1C(=O)c1c(O)c3c(c(O)c1C2=O)C[C@@](O)(C(=O)CO)C[C@@H]3O[C@H]1C[C@H](N)[C@H](O)[C@H](C)O1 [Doxorubicin]; details: max 1 µM
Summary of the method: as §1

[20] = compound: COc1nnc2ccc(N3CCC(c4ccc(OCCN5CCN(C)C(=O)[C@H]5C)cc4)CC3)nn12 [AZD5153]; details: max 1 µM
Summary of the method: as §1

[21] = compound: CS(=O)(=O)CCNCc1ccc(-c2ccc3ncnc(Nc4ccc(OCc5cccc(F)c5)c(Cl)c4)c3c2)o1 [Lapatinib]; details: max 10 µM
Summary of the method: as §1

[22] = compound: C[C@@H](Nc1cc(F)cc(F)c1)c1cc(C(=O)N(C)C)cc2c(=O)cc(N3CCOCC3)oc12 [AZD8186]
Summary of the method: as §1

[23] = compound: C[C@@H](Oc1cc(-c2cnn(C3CCNCC3)c2)cnc1N)c1c(Cl)ccc(F)c1Cl [Crizotinib]; details: max 10 µM
Summary of the method: as §1

[24] = compound: C[C@@H](c1ccc2nccn2c1)n1nnc2ncc(-c3cnn(C)c3)nc21 [Savolitinib]; details: max 1 µM
Summary of the method: as §1

[25] = compound: C[C@@H]1COCCN1C2=NC(=NC(=C2)C3(CC3)[S@](=N)(=O)C)C4=C5C=CNC5=NC=C4 [AZD6738]; details: max 10 µM
Summary of the method: as §1

[26] = compound: Cc1c2c(nn1C)CSCc1cc(n(C)n1)CSc1cc(c3ccccc3c1)OCCCc1c(C(=O)O)n(C)c3c-2c(Cl)ccc13 [AZD5991]; details: max 1 µM
Summary of the method: as §1

[27] = compound: Cc1cc2ncnn2cc1Nc1ncc2c(n1)n(C1CCOCC1)c(=O)n2C [AZD7648]; details: max 10 µM
Summary of the method: as §1

[28] = compound: Cc1nc(-c2cn3c(n2)-c2ccc(-c4cnn(C(C)(C)C(N)=O)c4)cc2OCC3)n(C(C)C)n1 [Taselisib]; details: max 10 µM
Summary of the method: as §1

[29] = compound: Cn1cnc2c(F)c(Nc3ccc(Br)cc3Cl)c(C(=O)NOCCO)cc21 [Selumetinib]; details: max 10 µM
Summary of the method: as §1

[30] = compound: N#Cc1cnc(Nc2cc(NC[C@H]3CNCCO3)c(C(F)(F)F)cn2)cn1 [SRA737]; details: max 10 µM
Summary of the method: as §1

[31] = compound: NC1(c2ccc(-c3nc4ccn5c(=O)[nH]nc5c4cc3-c3ccccc3)cc2)CCC1 [MK-2206]; details: max 10 µM
Summary of the method: as §1

[32] = compound: Nc1ccn([C@@H]2O[C@H](CO)[C@@H](O)C2(F)F)c(=O)n1 [Gemcitabine]; details: max 0.3 µM
Summary of the method: as §1

[33] = compound: O=C(Nc1ccc2[nH]nc(-c3ccncc3)c2c1)[C@@H]1CCN(CC(=O)N2CCN(c3ccc(-c4ncccn4)cc3)CC2)C1; details: max 5 µM
Summary of the method: as §1

[34] = compound: O=C(c1cc(Cc2n[nH]c(=O)c3ccccc23)ccc1F)N1CCN(C(=O)C2CC2)CC1 [Olaparib]; details: max 10 µM
Summary of the method: as §1

[35] = compound: O=c1[nH]cc(F)c(=O)[nH]1 [5-Fluorouracil]; details: max 20 µM
Summary of the method: as §1

[36] = compound: C1CN(CCC1(C(=O)N[C@@H](CCO)C2=CC=C(C=C2)Cl)N)C3=NC=NC4=C3C=CN4 [Capivasertib]; details: max 10 µM
Summary of the method: as §1

| Cell Line | IC50, cell viability 72 h [1] | IC50, cell viability 72 h [2] | IC50, cell viability 72 h [3] | IC50, cell viability 72 h [4] | IC50, cell viability 72 h [5] | IC50, cell viability 72 h [6] | IC50, cell viability 72 h [7] | IC50, cell viability 72 h [8] | IC50, cell viability 72 h [9] | IC50, cell viability 72 h [10] | IC50, cell viability 72 h [11] | IC50, cell viability 72 h [12] | IC50, cell viability 72 h [13] | IC50, cell viability 72 h [14] | IC50, cell viability 72 h [15] | IC50, cell viability 72 h [16] | IC50, cell viability 72 h [17] | IC50, cell viability 72 h [18] | IC50, cell viability 72 h [19] | IC50, cell viability 72 h [20] | IC50, cell viability 72 h [21] | IC50, cell viability 72 h ([22]; max 10 µM) | IC50, cell viability 72 h [23] | IC50, cell viability 72 h [24] | IC50, cell viability 72 h [25] | IC50, cell viability 72 h [26] | IC50, cell viability 72 h [27] | IC50, cell viability 72 h [28] | IC50, cell viability 72 h [29] | IC50, cell viability 72 h [30] | IC50, cell viability 72 h [31] | IC50, cell viability 72 h [32] | IC50, cell viability 72 h [33] | IC50, cell viability 72 h [34] | IC50, cell viability 72 h [35] | IC50, cell viability 72 h [36] | IC50, cell viability 72 h ([22]; max 3 µM) |
| --- | --- | --- | --- | --- | --- | --- | --- | --- | --- | --- | --- | --- | --- | --- | --- | --- | --- | --- | --- | --- | --- | --- | --- | --- | --- | --- | --- | --- | --- | --- | --- | --- | --- | --- | --- | --- | --- |
| COR-L95 (Small Cell Lung Carcinoma) | > 10 µM | > 10 µM | > 3 µM | > 1 µM | > 3 µM | > 10 µM | > 0.3 µM | 0.392 µM | > 2 µM | > 0.001 µM | > 1 µM | 0.0149 µM | > 3 µM | 0.00732 µM | > 10 µM | > 10 µM | > 10 µM | 0.123 µM | 0.15 µM | > 1 µM | > 10 µM | > 10 µM | > 10 µM | > 1 µM | > 10 µM | > 1 µM | > 10 µM | > 10 µM | > 10 µM | > 10 µM | > 10 µM | > 0.3 µM | > 5 µM | > 10 µM | > 20 µM |  |  |
| KM-H2 (Hodgkin's Lymphoma) |  |  | 0.615 µM | > 1 µM |  | > 10 µM | > 0.3 µM | > 1 µM | > 2 µM | > 0.001 µM | > 1 µM | 0.0488 µM | > 3 µM | > 1 µM | > 10 µM |  | > 10 µM | 0.0291 µM | 0.534 µM | > 1 µM | > 10 µM |  | > 10 µM | > 1 µM | 4.62 µM | > 1 µM | > 10 µM | > 10 µM | > 10 µM |  | > 10 µM |  |  | > 10 µM |  | > 10 µM | > 3 µM |
| NCI-H211 (Small Cell Lung Carcinoma) | > 10 µM | 9.9 µM | 0.628 µM | > 1 µM | < 0.003 µM | 6.13 µM | > 0.3 µM | 0.113 µM | > 2 µM |  | 0.0195 µM | 0.00231 µM | > 3 µM | 0.0233 µM |  | 0.342 µM | > 10 µM |  |  | 0.0302 µM | 8.54 µM | > 10 µM | 1.92 µM | > 1 µM | 5.99 µM | 0.307 µM | > 10 µM | > 10 µM | > 10 µM | > 10 µM | > 10 µM | 0.00872 µM | > 5 µM | 3.58 µM | > 20 µM |  |  |
| NCI-H1781 (Lung Adenocarcinoma) |  |  | 0.839 µM | > 1 µM |  | > 10 µM | > 0.3 µM | > 1 µM | > 2 µM | > 0.001 µM | 0.583 µM | 0.00506 µM | > 3 µM | > 1 µM | 1.77 µM |  | 5.37 µM | 0.709 µM | 0.107 µM | > 1 µM | 8.92 µM |  | > 10 µM | > 1 µM | > 10 µM | > 1 µM | > 10 µM | 2.11 µM | > 10 µM |  |  |  |  | > 10 µM |  | 7.07 µM | > 3 µM |
| NCI-H1793 (Lung Adenocarcinoma) |  |  | > 3 µM | > 1 µM |  | > 10 µM | > 0.3 µM | > 1 µM | 1.1 µM | > 0.001 µM | > 1 µM | > 0.3 µM | > 3 µM | > 1 µM | > 10 µM |  | > 10 µM | 0.938 µM | > 1 µM | > 1 µM | > 10 µM |  | > 10 µM | > 1 µM | > 10 µM | > 1 µM | > 10 µM | > 10 µM | > 10 µM |  |  |  |  | > 10 µM |  | > 10 µM | > 3 µM |
| NCI-H2369 (Mesothelioma) |  |  | > 3 µM | > 1 µM |  | > 10 µM | > 0.3 µM | > 1 µM | > 2 µM | > 0.001 µM | > 1 µM | > 0.3 µM | > 3 µM | > 1 µM | > 10 µM |  | > 10 µM | > 1 µM | > 1 µM | > 1 µM | > 10 µM |  | > 10 µM | > 1 µM | > 10 µM | > 1 µM | > 10 µM | > 10 µM | > 10 µM |  |  |  |  | > 10 µM |  | > 10 µM | > 3 µM |
